The assay addresses AMPK. The experiment in a line: AMPK activation, enzyme-linked immunosorbent assay. The format is biochemical. As to conditions: EC50 for AMPK activation, ELISA. In short, it runs like this: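 Activator screen performed per well-known kit methods.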
For orientation: In an ELISA, binding on a coated surface is turned into a signal by an enzyme label.
For `N#Cc1ccc(CN2CCC(NC(=O)c3ccc(C(=O)N4CCC(Oc5ccc(S(=O)(=O)C6CC6)cc5)CC4)nc3)CC2)cc1` [Compound 246, N-(1-(4-cyanobenzyl)piperidin-4-yl)-6-(4-(4-(cyclopropylsulfonyl)phenoxy)piperidine-1-carbonyl)nicotinamide], the EC50 is under 500 nM.
As for `COc1ccc(C(=O)C2CCN(C(=O)c3ccc(C(=O)NC4CCN(Cc5ccc(NC(C)=O)cc5)CC4)cn3)CC2)cc1` [Compound 401, N-(1-(4-acetamidobenzyl)piperidin-4-yl)-6-(4-(4-methoxybenzoyl)piperidine-1-carbonyl)nicotinamide], the figure is 1000 to 5000 nM.
Then `COc1ccc(C(=O)C2CCN(C(=O)c3ccc(C(=O)Nc4ccc(S(=O)(=O)c5ccc(F)cc5)nc4)cn3)CC2)cc1` [Compound 467, N-(6-(4-fluorophenylsulfonyl)pyridin-3-yl)-6-(4-(4-methoxybenzoyl)piperidine-1-carbonyl)nicotinamide], with 1000 to 5000 nM; and `CC(C)(C)C(=O)N1CCN(C(=O)c2ccc(C(=O)NC3CCN(Cc4ccc(C#N)cc4)CC3)nc2)CC1` [Compound 81, N-(1-(4-cyanobenzyl)piperidin-4-yl)-5-(4-pivaloylpiperazine-1-carbonyl)picolinamide], with 500 to 1000 nM.
As for `CS(=O)(=O)c1ccc(C(=O)C2CCN(C(=O)c3ccc(C(=O)NC4CCN(Cc5ccc(N6CCCC6)cc5)CC4)nc3)CC2)cc1` [Compound 233, 5-(4-(4-(methylsulfonyl)benzoyl)piperidine-1-carbonyl)-N-(1-(4-(pyrrolidin-1-yl)benzyl)piperidin-4-yl)picolinamide], the figure is under 500 nM; as for `COc1ccc(OC2CCN(C(=O)c3ccc(C(=O)NC4CCN(Cc5ccc(C#N)cc5)CC4)cn3)CC2)c([N+](=O)[O-])c1` [Compound 378, N-(1-(4-cyanobenzyl)piperidin-4-yl)-6-(4-(4-methoxy-2-nitrophenoxy)piperidine-1-carbonyl)nicotinamide], under 500 nM; as for `N#Cc1ccc(CN2CCC(NC(=O)c3ccc(C(=O)N4CCC(C(=O)c5ccc(N6CCCC6)cc5)CC4)nc3)CC2)cc1F` [Compound 447, N-(1-(4-cyano-3-fluorobenzyl)piperidin-4-yl)-6-(4-(4-(pyrrolidin-1-yl)benzoyl)piperidine-1-carbonyl)nicotinamide], under 500 nM.
In the case of `N#Cc1ccc(CN2CCC(NC(=O)c3ccc(C(=O)N4CCC(Oc5ccc(N)cc5)CC4)nc3)CC2)cc1` [Compound 364, 6-(4-(4-aminophenoxy)piperidine-1-carbonyl)-N-(1-(4-cyanobenzyl)piperidin-4-yl)nicotinamide], the EC50 is under 500 nM.
Then `N#Cc1ccc(CN2CCC(NC(=O)c3ccc(C(=O)N4CC(OCc5ccc(F)cc5)C4)cn3)CC2)cc1` [Compound 307, N-(1-(4-cyanobenzyl)piperidin-4-yl)-5-(3-(4-fluorobenzyloxy)azetidine-1-carbonyl)picolinamide], with 500 to 1000 nM; and `N#Cc1ccc(CN2CCC(NC(=O)c3ccc(C(=O)NC4CCN(c5ccc(C#N)cc5)CC4)cn3)CC2)cc1` [Compound 166, N2-(1-(4-cyanobenzyl)piperidin-4-yl)-N5-(1-(4-cyanophenyl)piperidin-4-yl)pyridine-2,5-dicarboxamide], with under 500 nM.
As for `CS(=O)(=O)c1ccc(C(=O)C2CCN(C(=O)c3ccc(C(=O)NC4CCN(Cc5ccc(N6CCCC6)cc5)CC4)cn3)CC2)cc1` [Compound 229, 6-(4-(4-(methylsulfonyl)benzoyl)piperidine-1-carbonyl)-N-(1-(4-(pyrrolidin-1-yl)benzyl)piperidin-4-yl)nicotinamide], the figure is 1000 to 5000 nM; as for `N#Cc1ccc(CN2CCC(NC(=O)c3cnc(C(=O)N4CCC(Oc5ccc(C(F)(F)F)cc5)CC4)cn3)CC2)cc1` [Compound 212, N-(1-(4-cyanobenzyl)piperidin-4-yl)-5-(4-(4-(trifluoromethyl)phenoxy)piperidine-1-carbonyl)pyrazine-2-carboxamide], under 500 nM.
For the molecule `O=C(Nc1cccc(-c2ccccc2)c1)c1ccc(C(=O)NC2CCN(Cc3ccccc3)CC2)nc1` [Compound 106, N2-(1-benzylpiperidin-4-yl)-N5-(biphenyl-3-yl)pyridine-2,5-dicarboxamide], the EC50 fell in the range of 5000 to 10000 nM.
Then `O=C(c1cccc(C(=O)N2CCN(c3ccccc3)CC2)n1)N1CCN(Cc2ccc(F)cc2)CC1` [Compound 94, (4-(4-fluorobenzyl)piperazin-1-yl)(6-(4-phenylpiperazine-1-carbonyl)pyridin-2-yl)methanone], with over 10000 nM; and `N#Cc1ccc(CN2CCC(NC(=O)c3ccc(C(=O)N4CCN(C(=O)c5ccccc5)CC4)cn3)CC2)cc1` [Compound 80, 5-(4-benzoylpiperazine-1-carbonyl)-N-(1-(4-cyanobenzyl)piperidin-4-yl)picolinamide], with 1000 to 5000 nM.
As for `N#Cc1ccc(CN2CCC(NC(=O)c3ccc(C(=O)N4CCC(Oc5ccc(C#N)c(Cl)c5)CC4)cn3)CC2)cc1` [Compound 156, 5-(4-(3-chloro-4-cyanophenoxy)piperidine-1-carbonyl)-N-(1-(4-cyanobenzyl)piperidin-4-yl)picolinamide], the figure is under 500 nM.
Take `CS(=O)(=O)c1ccc(OC2CCN(C(=O)c3ccc(C(=O)Nc4ccc(Oc5ccc(F)cc5)nc4)nc3)CC2)cc1` [Compound 231, N-(6-(4-fluorophenoxy)pyridin-3-yl)-5-(4-(4-(methylsulfonyl)phenoxy)piperidine-1-carbonyl)picolinamide]: the EC50 is under 500 nM.
As for `COc1ccc(OC2CCN(C(=O)c3ccc(C(=O)N[C@H]4CC[C@H](Oc5ccc(C#N)cc5)CC4)nc3)CC2)cc1` [Compound 172, N-((trans)-4-(4-cyanophenoxy)cyclohexyl)-5-(4-(4-methoxyphenoxy)piperidine-1-carbonyl)picolinamide], the figure is under 500 nM.
As for `COc1ccc(CN2CCC(NC(=O)c3ccc(C(=O)N4CCN(Cc5ccc(F)cc5)CC4)cn3)CC2)cc1` [Compound 117, 5-(4-(4-fluorobenzyl)piperazine-1-carbonyl)-N-(1-(4-methoxybenzyl)piperidin-4-yl)picolinamide], the figure is under 500 nM; as for `CC(=O)c1ccc(Oc2ccc(NC(=O)c3ccc(C(=O)N4CCC(C(=O)c5ccc(F)cc5F)CC4)nc3)cn2)cc1` [Compound 464, N-(6-(4-acetylphenoxy)pyridin-3-yl)-6-(4-(2,4-difluorobenzoyl)piperidine-1-carbonyl)nicotinamide], under 500 nM; as for `N#Cc1ccc(CN2CCC(NC(=O)c3ccc(C(=O)N4CCC(C(F)c5ccc(F)cc5)CC4)cn3)CC2)cc1` (centres unmarked) [Compound 138, N-(1-(4-cyanobenzyl)piperidin-4-yl)-5-(4-(fluoro(4-fluorophenyl)methyl)piperidine-1-carbonyl)picolinamide], under 500 nM.
Then `N#Cc1ccc(CN2CCC(NC(=O)c3ccc(C(=O)NC4CCN(Cc5ccc(C#N)cc5)CC4)nn3)CC2)cc1` [Compound 386, N3,N6-bis(1-(4-cyanobenzyl)piperidin-4-yl)pyridazine-3,6-dicarboxamide], with over 10000 nM; and `COc1ccc(C(=O)C2CCN(C(=O)c3ccc(C(=O)N[C@H]4CC[C@@H](Oc5ccc(C#N)c(F)c5)CC4)nc3)CC2)cc1` [Compound 198, N-((cis)-4-(4-cyano-3-fluorophenoxy)cyclohexyl)-5-(4-(4-methoxybenzoyl)piperidine-1-carbonyl)picolinamide], with under 500 nM.
On to `CS(=O)(=O)c1ccc(OC2CCN(C(=O)c3ccc(C(=O)NC4CCN(Cc5ccc(C#N)cc5)CC4)nc3)CC2)cc1` [Compound 227, N-(1-(4-cyanobenzyl)piperidin-4-yl)-5-(4-(4-(methylsulfonyl)phenoxy)piperidine-1-carbonyl)picolinamide], for which the concentration for a half-maximal effect (EC50) is under 500 nM.
Then `N#Cc1ccc(CN2CCC(NC(=O)c3ccc(NC4CCN(c5ccccc5)CC4)cn3)CC2)cc1` [Compound 126, N-(1-(4-cyanobenzyl)piperidin-4-yl)-5-(1-phenylpiperidin-4-ylamino)picolinamide], with under 500 nM; and `N#Cc1ccc(CN2CCC(NC(=O)c3ccc(C(=O)N4CCC(C(=O)c5ccc(F)c(F)c5)CC4)cn3)CC2)cc1` [Compound 281, N-(1-(4-cyanobenzyl)piperidin-4-yl)-5-(4-(3,4-difluorobenzoyl)piperidine-1-carbonyl)picolinamide], with under 500 nM; and `N#Cc1ccc(CN2CCC(NC(=O)c3ccc(NC4CCN(c5ccc(Cl)cc5)CC4)cn3)CC2)cc1` [Compound 139, 5-(1-(4-chlorophenyl)piperidin-4-ylamino)-N-(1-(4-cyanobenzyl)piperidin-4-yl)picolinamide], with under 500 nM.
As for `N#Cc1ccc(CN2CCC(NC(=O)c3ccc(N4CCC(Oc5ccc(C#N)cc5)CC4)cn3)CC2)cc1` [Compound 165, N-(1-(4-cyanobenzyl)piperidin-4-yl)-5-(4-(4-cyanophenoxy)piperidin-1-yl)picolinamide], the figure is under 500 nM; as for `CC(=O)c1ccc(OC2CCN(C(=O)c3ccc(C(=O)NC4CCN(Cc5ccc(C#N)cc5)CC4)nc3)CC2)cc1` [Compound 358, 5-(4-(4-acetylphenoxy)piperidine-1-carbonyl)-N-(1-(4-cyanobenzyl)piperidin-4-yl)picolinamide], under 500 nM; as for `O=C(NC1CCN(Cc2ccccc2)CC1)c1ccc(Nc2cccc(Oc3ccccc3)c2)cn1` [Compound 112, N-(1-benzylpiperidin-4-yl)-5-(3-phenoxyphenylamino) picolinamide], 1000 to 5000 nM.
Then `N#Cc1ccc(O[C@H]2CC[C@H](NC(=O)c3ccc(C(=O)N4CCC(C(=O)c5ccc(F)cc5)CC4)cn3)CC2)cc1` [Compound 168, N-((trans)-4-(4-cyanophenoxy)cyclohexyl)-5-(4-(4-fluorobenzoyl)piperidine-1-carbonyl)picolinamide], with under 500 nM; and `O=C(NC1CCN(Cc2ccc(OC(F)(F)F)cc2)CC1)c1ccc(C(=O)N2CCC(C(=O)c3ccc(N4CCCC4)cc3)CC2)nc1` [Compound 440, 6-(4-(4-(pyrrolidin-1-yl)benzoyl)piperidine-1-carbonyl)-N-(1-(4-(trifluoromethoxy)benzyl)piperidin-4-yl)nicotinamide], with under 500 nM.

For orientation: EC50 means the concentration giving half of the maximal effect. Lower therefore signals greater potency.

Source of the values: patent US9663496B2, “AMPK-activating heterocyclic compounds and methods for using the same” (Rigel Pharmaceuticals, Inc., priority 2010, dated 2017).
